Values joined by “and” are separate entries in the source; they are usually repeats but may differ in a detail not shown here. Identical values can stand only once.
Legend:
IGF1R = target: T1, IGF1R (Homo sapiens, UniProt P08069); assay: Kinase Selectivity Profiling System TK-1 / ADP-Glo, IGF1R; type: biochemical
T1 construct: purchased Promega
Experimental: (§1) At the end, 10 μL of kinase detection reagent was added into the well and incubated for 30 min to produce a luminescence signal.

HER2 = target: T2, HER2 (Homo sapiens, UniProt P04626); assay: Kinase Selectivity Profiling System TK-1 / ADP-Glo, HER2; type: biochemical
T2 construct: purchased Promega
Experimental: as §1

InsR = target: T3, InsR (Homo sapiens, UniProt P06213); assay: Kinase Selectivity Profiling System TK-1 / ADP-Glo, InsR; type: biochemical
T3 construct: purchased Promega
Experimental: as §1

KDR (VEGFR-2) = target: T4, KDR (VEGFR-2) (Homo sapiens, UniProt P35968); assay: Kinase Selectivity Profiling System TK-1 / ADP-Glo, KDR; type: biochemical
T4 construct: purchased Promega
T4 sequence (P35968 20-1356): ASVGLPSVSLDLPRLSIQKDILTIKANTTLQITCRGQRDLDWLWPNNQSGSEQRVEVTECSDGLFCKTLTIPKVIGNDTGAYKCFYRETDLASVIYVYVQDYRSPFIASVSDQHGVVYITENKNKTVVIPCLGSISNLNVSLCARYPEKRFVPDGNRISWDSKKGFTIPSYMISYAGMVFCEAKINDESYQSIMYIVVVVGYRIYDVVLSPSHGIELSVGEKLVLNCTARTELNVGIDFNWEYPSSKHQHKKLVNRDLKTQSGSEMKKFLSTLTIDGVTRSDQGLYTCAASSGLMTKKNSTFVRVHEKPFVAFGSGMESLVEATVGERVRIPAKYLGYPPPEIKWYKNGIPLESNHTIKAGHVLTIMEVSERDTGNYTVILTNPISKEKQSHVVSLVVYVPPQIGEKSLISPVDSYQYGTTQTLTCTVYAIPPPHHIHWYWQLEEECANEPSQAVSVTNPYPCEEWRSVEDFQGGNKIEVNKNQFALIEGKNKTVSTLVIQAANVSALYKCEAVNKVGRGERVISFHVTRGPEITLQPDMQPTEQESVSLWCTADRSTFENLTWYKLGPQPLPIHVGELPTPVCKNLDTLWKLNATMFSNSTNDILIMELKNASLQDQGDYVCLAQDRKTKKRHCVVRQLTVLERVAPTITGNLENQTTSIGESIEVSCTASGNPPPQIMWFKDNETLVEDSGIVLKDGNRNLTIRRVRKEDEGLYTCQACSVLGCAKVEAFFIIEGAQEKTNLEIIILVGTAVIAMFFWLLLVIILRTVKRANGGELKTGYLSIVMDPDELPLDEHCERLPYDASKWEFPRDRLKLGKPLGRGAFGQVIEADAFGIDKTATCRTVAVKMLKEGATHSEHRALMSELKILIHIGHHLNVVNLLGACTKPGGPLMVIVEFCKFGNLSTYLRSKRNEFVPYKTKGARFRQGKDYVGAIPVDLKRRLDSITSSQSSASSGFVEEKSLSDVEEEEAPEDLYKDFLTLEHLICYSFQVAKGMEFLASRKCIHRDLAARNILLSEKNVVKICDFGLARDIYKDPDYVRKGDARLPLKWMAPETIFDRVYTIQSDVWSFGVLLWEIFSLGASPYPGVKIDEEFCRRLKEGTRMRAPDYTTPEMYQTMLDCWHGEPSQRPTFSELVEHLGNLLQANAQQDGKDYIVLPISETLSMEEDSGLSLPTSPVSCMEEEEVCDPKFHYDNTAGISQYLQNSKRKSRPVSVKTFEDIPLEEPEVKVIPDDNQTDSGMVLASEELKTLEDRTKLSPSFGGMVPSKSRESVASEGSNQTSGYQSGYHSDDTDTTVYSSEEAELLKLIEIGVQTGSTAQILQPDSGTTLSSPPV
Experimental: as §1

Bcr–Abl1 kinase = target: T5, Bcr–Abl1 kinase (Homo sapiens, UniProt P00519); assay: Abl1 Kinase Enzyme System / ADP-Glo kinase assay; type: biochemical; conditions: ATP 50 μM; for inhibition at 0.5 µM: 0.5 µM compound; for inhibition at 10 µM: 10 µM compound
T5 construct: purchased Promega
T5 sequence (P00519 whole entry): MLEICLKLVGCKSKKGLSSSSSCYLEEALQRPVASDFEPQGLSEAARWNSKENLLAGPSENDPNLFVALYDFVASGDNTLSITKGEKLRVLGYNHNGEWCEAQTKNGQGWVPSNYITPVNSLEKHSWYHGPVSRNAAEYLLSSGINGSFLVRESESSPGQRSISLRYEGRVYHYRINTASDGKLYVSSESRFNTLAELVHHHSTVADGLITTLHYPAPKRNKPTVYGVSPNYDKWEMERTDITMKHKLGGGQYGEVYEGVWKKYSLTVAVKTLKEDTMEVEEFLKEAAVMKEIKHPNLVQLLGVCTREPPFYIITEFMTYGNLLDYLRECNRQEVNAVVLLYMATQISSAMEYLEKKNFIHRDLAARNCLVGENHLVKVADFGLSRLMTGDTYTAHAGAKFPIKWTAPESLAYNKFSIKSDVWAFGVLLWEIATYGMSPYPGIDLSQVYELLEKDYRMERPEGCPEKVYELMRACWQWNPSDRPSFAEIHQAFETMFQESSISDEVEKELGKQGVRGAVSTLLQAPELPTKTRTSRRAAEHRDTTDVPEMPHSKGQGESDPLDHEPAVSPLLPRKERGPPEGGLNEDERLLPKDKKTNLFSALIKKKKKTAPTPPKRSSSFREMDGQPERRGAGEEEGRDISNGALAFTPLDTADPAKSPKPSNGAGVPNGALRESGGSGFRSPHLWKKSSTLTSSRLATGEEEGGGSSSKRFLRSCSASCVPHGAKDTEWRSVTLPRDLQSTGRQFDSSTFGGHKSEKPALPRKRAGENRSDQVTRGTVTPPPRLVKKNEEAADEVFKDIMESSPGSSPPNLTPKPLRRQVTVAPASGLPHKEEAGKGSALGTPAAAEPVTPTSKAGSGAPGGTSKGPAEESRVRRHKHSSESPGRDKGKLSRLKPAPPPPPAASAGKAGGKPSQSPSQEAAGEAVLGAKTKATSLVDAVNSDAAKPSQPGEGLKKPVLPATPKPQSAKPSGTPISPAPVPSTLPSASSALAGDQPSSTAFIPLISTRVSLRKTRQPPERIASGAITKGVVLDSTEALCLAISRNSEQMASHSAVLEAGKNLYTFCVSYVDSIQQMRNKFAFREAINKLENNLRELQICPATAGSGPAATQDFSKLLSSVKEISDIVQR
Experimental: as §1

PDGFRβ = target: T6, PDGFRβ (Homo sapiens, UniProt P09619); assay: Kinase Selectivity Profiling System TK-1 / ADP-Glo, PDGFRβ; type: biochemical
T6 construct: purchased Promega
T6 sequence (P09619 33-1106): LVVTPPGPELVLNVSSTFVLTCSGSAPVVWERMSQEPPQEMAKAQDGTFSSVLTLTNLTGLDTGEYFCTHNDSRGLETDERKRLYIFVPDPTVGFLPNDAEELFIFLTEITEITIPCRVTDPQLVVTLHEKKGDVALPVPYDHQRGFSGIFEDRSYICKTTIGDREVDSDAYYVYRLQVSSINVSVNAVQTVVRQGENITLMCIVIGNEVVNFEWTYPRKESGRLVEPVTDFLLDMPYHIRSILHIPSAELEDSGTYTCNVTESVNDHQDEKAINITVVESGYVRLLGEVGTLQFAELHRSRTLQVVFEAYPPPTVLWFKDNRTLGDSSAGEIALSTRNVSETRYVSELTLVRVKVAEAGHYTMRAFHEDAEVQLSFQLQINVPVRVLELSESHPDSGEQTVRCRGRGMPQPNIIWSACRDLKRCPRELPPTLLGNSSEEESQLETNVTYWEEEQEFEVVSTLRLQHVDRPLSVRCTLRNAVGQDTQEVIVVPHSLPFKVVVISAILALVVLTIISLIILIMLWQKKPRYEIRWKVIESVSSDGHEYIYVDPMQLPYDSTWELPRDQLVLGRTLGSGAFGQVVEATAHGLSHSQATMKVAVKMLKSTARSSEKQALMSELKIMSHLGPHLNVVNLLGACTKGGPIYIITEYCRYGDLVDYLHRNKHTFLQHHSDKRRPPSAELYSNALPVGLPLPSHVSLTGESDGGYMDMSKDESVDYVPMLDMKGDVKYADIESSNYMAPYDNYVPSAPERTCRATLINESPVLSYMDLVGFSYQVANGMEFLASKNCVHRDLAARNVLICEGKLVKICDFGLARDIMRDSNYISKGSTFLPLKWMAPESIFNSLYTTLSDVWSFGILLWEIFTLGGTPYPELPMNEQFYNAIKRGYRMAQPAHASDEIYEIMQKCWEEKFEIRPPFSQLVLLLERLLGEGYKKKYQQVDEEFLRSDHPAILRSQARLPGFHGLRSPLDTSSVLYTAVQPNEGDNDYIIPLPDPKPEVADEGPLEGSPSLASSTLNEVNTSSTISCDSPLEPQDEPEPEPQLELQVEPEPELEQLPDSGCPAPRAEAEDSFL
Experimental: as §1

A549 (lung carcinoma) = assay: MTT anti-proliferative assay, A549; type: cell-based; conditions: Homo sapiens, 48 h
Experimental: (§2) To determine the selectivity of the synthesized compounds 7–16 toward various cancer cells and normal human cells, the anti-proliferative activity against K562 (chronic myelogenous leukemia), HL-60 (promyelocytic leukemia), MCF-7 (breast adenocarcinoma), HeLa (cervix carcinoma), HepG2 (human liver cancer), A549 (lung carcinoma), OKP-GS (renal cell carcinoma), and normal cells RPMI 1788 (B lymphocyte, the human cell line) was investigated.
(§3) Each in vitro experiment was performed at least in triplicate and the standard deviation of absorbance was less than 10% of the mean. For the in vitro assays, a stock solution (1% DMSO in the appropriate buffer with the tested compound diluted under sonication) was prepared from which several dilutions were made with the appropriate buffer.
(§4) Human cell lines were obtained from the Institute of Cytology, Russian Academy of Sciences. The cell lines studied were maintained in RPMI 1640 medium (AppliChem, Darmstadt, Germany) supplemented with 20% (HL-60, RPMI 1788) fetal calf serum (HyClone, Cramlington, UK), in DMEM (A 549) and Eagle’s MEM (AppliChem) (MCF7, HeLa) with 10% fetal calf serum (HyClone). Cells were cultivated at 37 °C in a humidified atmosphere of 5% CO2. Cellular sensitivities to synthesized compounds and standards were measured with the MTT assay. Cells were plated in triplicate in 96-well plates (10^5 cells/well for suspended cell cultures and 5 × 10^3 cells/well for monolayer cultures); on the same day (suspended cell cultures) or on the following day (monolayer cultures), compounds were added at the appropriate dilutions. Anti-proliferative activity was studied at concentrations 0.1–50.0 µM. The reference drugs were imatinib, sorafenib and nilotinib. Plates were incubated under standard conditions for 48 h. Thereafter, 10 μL MTT (Sigma) in phosphate-buffered saline (5 mg/mL) was added. The plates were incubated for an additional 4 h and 150 μL dimethylsulphoxide (DMSO) was added to dissolve the formazan crystals. The optical density was read on a HALO MPR-95 Microplate Reader (Dynamica Scientific Ltd., Melbourne, Victoria, Australia) at 570 nm. The antiproliferative effects were taken as degrees of inhibition of tumor cells (%). The average of three parallel measurements was calculated for each concentration of test compound. The degree of cell growth suppression was plotted as a function of the logarithm of the concentration. The half maximal inhibitory concentration (IC50) was determined graphically for active compounds.

OKP-GS cells [1] = assay: Annexin-V/propidium iodide apoptosis assay by flow cytometry; type: cell-based, human; conditions: for Living cells: Figure 3; for Level of apoptosis compared with sorafnib / Number of necrotic cells: 72 h; for Number of necrotic cells: 5, 10 and 20 μM
Experimental: Apoptosis is a versatile and extremely effective pathway for cell death. This phenomenon can be caused by internal signals, such as genotoxic stress, or external signals, such as the binding of ligands to death receptors on the cell surface. The induction of apoptosis was studied by measuring the translocation of phosphatidylserine from the cytoplasmic to the extracellular side of the plasma membrane. OKP-GS cells were treated with compound 7 or 10 at 5, 10 and 20 μM for 72 h, after which annexin-V/propidium iodide (PI) binding was measured by flow cytometry (Figure 2).
Tumor cells were plated on a 6-well plate at a density of 100.000 per well for OKP-GS. Test compounds 7 and 10 were added at concentrations of 5, 10, and 20 μM for 72 h. Then, the cells were washed from the culture medium by centrifugation at 1000 rpm for 5 min, washed again with phosphate buffer, then the Annexin V-FITC and PI dyes from the Annexin 5A-FITC Kit (Beckman Coulter, Brea, CA, USA) were added, according to the manufacturer’s instructions. Colored suspensions were incubated for 15 min in the dark on ice and measured on a Cytomics FC500 Beckman Coulter flow cytometer (channels FL1 for Annexin V-FITC and FL4 for PI). Data were analyzed with Kaluza 2.0 Software (Beckman Coulter, Brea, CA, USA).

OKP-GS cells [2] = assay: Cell cycle distribution, propidium iodide staining, flow cytometry; type: cell-based, human; conditions: 72 h
Experimental: To assess changes in the distribution of cells by phases of the cell cycle, we used the method of staining fixed samples with propidium iodide (Calbiochem, USA). Pre-fixation of cells was carried out with 70% ethanol for […]. To exclude the binding of propidium iodide to RNA, the fixed samples were treated with RNAse A at a final concentration of 50 μg/mL (R4875, Sigma, St. Louis, MI, USA) for 15 min at 37 °C [34, 35].
Tumor cells were seeded on a 6-well plate at a density of 200.000 per well for HL-60 and 100.000 per well for OKP-GS. Test compounds 7 and 10 were added at concentrations of 5, 10, and 20 μM for 72 h. Then, the cells were washed from the culture medium by centrifugation at 1000 rpm for 5 min, washed again with PBS, then fixed with ice-cold ethanol during constant shaking and incubated at −20 °C for 24 h. After that, we washed it from alcohol by centrifugation, washed it again with PBS and added a solution containing 100 μg/mL RNase A and 10 μg/mL propidium iodide (PI), incubated for 40 min in the dark and measure it on a Cytomics FC500 Beckman Coulter flow cytometer (FL4 channel for PI). Received data were analyzed with the help of Kaluza 2.0 Software (Beckman Coulter, Brea, CA, USA).

[3] = system: OKP-GS (renal cell carcinoma); assay: MTT anti-proliferative assay, OKP-GS; type: cell-based; conditions: Homo sapiens, 48 h
Experimental: as §2, §3, §4

T1 sequence (P08069 31-1367): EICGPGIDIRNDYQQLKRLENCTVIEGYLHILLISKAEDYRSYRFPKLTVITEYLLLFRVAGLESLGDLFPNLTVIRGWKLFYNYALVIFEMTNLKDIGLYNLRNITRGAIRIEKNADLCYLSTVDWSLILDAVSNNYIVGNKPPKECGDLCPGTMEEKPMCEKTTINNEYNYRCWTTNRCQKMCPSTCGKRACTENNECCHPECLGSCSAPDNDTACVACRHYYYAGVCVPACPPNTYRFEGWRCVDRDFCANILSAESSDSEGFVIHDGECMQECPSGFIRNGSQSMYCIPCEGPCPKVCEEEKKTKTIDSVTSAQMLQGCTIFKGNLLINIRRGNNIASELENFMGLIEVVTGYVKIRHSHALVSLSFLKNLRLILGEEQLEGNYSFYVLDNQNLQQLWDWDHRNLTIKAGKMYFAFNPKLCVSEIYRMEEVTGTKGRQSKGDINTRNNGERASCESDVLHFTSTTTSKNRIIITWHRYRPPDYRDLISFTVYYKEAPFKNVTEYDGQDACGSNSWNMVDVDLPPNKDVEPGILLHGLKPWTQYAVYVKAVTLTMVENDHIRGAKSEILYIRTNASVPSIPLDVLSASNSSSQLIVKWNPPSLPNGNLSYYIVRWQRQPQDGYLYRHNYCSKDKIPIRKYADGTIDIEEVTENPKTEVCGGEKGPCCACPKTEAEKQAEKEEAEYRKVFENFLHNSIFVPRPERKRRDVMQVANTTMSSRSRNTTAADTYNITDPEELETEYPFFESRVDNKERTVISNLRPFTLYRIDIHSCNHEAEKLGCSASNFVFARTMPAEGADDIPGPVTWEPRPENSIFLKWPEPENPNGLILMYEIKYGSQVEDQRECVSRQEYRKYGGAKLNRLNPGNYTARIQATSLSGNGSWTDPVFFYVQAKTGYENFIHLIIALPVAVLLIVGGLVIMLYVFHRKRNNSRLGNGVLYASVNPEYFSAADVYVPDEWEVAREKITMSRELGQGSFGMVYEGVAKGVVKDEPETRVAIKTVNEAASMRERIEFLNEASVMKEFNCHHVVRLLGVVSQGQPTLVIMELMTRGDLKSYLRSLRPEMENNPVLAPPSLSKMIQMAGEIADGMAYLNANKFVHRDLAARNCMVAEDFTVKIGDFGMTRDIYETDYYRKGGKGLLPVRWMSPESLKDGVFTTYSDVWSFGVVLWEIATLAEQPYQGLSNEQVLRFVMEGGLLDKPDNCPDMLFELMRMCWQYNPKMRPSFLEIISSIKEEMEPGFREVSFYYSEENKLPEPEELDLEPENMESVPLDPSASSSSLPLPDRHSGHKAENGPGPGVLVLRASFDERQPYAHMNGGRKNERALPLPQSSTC

| Compound | inhibition at 1 µM (IGF1R) [%] | melting point [°C] | inhibition at 1 µM (HER2) [%] | inhibition at 1 µM (InsR) [%] | inhibition at 1 µM (KDR (VEGFR-2)) [%] | inhibition at 0.5 µM (Bcr–Abl1 kinase) [%] | inhibition at 10 µM (Bcr–Abl1 kinase) [%] | inhibition at 1 µM (PDGFRβ) [%] | IC50 (A549 (lung carcinoma)) [µM] | Living cells (OKP-GS cells [1]; 5 μM) | Living cells (OKP-GS cells [1]; 10 μM) | Level of apoptosis compared with sorafnib (OKP-GS cells [1]; 20 μM) | Living cells (OKP-GS cells [1]; 20 μM) | Number of necrotic cells (OKP-GS cells [1]) [%] | Cells in G1 phase (OKP-GS cells [2]; 5 μM) [%] | Cells in G2/M phase (OKP-GS cells [2]; 5 μM) | Cells in S phase (OKP-GS cells [2]; 5 μM) [%] | Cells in G2/M phase (OKP-GS cells [2]; 20 μM) | Cells in S phase (OKP-GS cells [2]; 20 μM) [%] | IC50 [3] [µM] | also measured |
| --- | --- | --- | --- | --- | --- | --- | --- | --- | --- | --- | --- | --- | --- | --- | --- | --- | --- | --- | --- | --- | --- |
| Nc1nc(Cl)nc2c1ncn2Cc1ccc(C(=O)Nc2cccc(C(F)(F)F)c2)cc1 [Compound 15, 4-((6-Amino-2-chloro-9H-purin-9-yl)methyl)-N-(3-(trifluoromethyl)phenyl)benzamide] | 0 | 272 to 274 | 0 | 0 | 13 | 17 | 28 | 33 |  |  |  |  |  |  |  |  |  |  |  |  |  |
| Cc1cn(-c2cc(NC(=O)c3ccc(Cn4cnc5c(Cl)nc(Cl)nc54)cc3)cc(C(F)(F)F)c2)cn1 [Compound 10, 4-((2,6-Dichloro-9H-purin-9-yl)methyl)-N-(3-(4-methyl-1H-imidazol-1-yl)-5-(trifluoromethyl)-phenyl)benzamide] | 0 |  | 11 | 0 | 16 | 36 | 43 | 39 | 18 ± 0.73 | 70,22 | 44,89 | more than two-fold higher level of apoptosis | 21,99 | ≤ 7.3 | 56.9 | 24.3% | 16.8 | 25.3% | 19.3 | 24.8 ± 3.25 | Cells in G1 phase (OKP-GS cells [2]; 10 μM): 53.3%; Cells in G2/M phase (OKP-GS cells [2]; 10 μM): 24.2%; Cells in S phase (OKP-GS cells [2]; 10 μM): 21.5% |
| COc1nc(Cl)nc2c1ncn2Cc1ccc(C(=O)Nc2cccc(C(F)(F)F)c2)cc1 [Compound 13, 4-((2-Chloro-6-methoxy-9H-purin-9-yl)methyl)-N-(3-(trifluoromethyl)phenyl)benzamide] | 0 | 212 to 214 | 0 | 0 | 30 | 24 | 21 | 17 | 13 ± 0.67 |  |  |  |  |  |  |  |  |  |  | 15.5 ± 2.27 |  |
| COc1nc(Cl)nc2c1ncn2Cc1ccc(C(=O)Nc2cc(-n3cnc(C)c3)cc(C(F)(F)F)c2)cc1 [Compound 14, 4-((2-Chloro-6-methoxy-9H-purin-9-yl)methyl)-N-(3-(4-methyl-1H-imidazol-1-yl)-5-(trifluoromethyl)phenyl)benzamide] | 0 | 160 to 162 | 8 | 17 | 27 | 18 | 17 | 20 | 20.1 ± 0.81 |  |  |  |  |  |  |  |  |  |  | 10.6 ± 2.88 |  |
| CNC(=O)c1cc(Oc2ccc(NC(=O)Nc3ccc(Cl)c(C(F)(F)F)c3)cc2)ccn1 [Sorafenib, sorafenib, reference compound] |  |  |  |  |  |  |  |  | 6.01 ± 1.27 |  |  |  |  |  |  |  |  | 19.7% | 17.3 | 13.6 ± 1.71 | Cells in G1 phase (OKP-GS cells [2]; 20 μM): 61.9% |
| O=C(Nc1cccc(C(F)(F)F)c1)c1ccc(Cn2cnc3c(Cl)nc(Cl)nc32)cc1 [Compound 7, 4-((2,6-Dichloro-9H-purin-9-yl)methyl)-N-(3-(trifluoromethyl)phenyl)benzamide] | 0 |  | 22 to 26 | 6 | 11 | 24 | 16 | 36 to 45 | 26.9 ± 0.64 | 83,07 | 56,68 | more than two-fold higher level of apoptosis | 23,92 | ≤ 7.3 | 60.9 | 23.53% and 23.5% | 14.2 | 29.94% and 29.9% | 17.4 | 4.56 ± 1.73 | % Inhibition at 1 µM, HER2 (HER2): 22%; % Inhibition at 1 µM, PDGFRβ (PDGFRβ): 30%; Cells in G1 phase (OKP-GS cells [2]; 10 μM): 55.5%; Cells in G2/M phase (OKP-GS cells [2]; 10 μM): 26.02% and 26.0%; Cells in S phase (OKP-GS cells [2]; 10 μM): 17.7%; Cells in G1 phase (OKP-GS cells [2]; 20 μM): 51.2% |
